Assays:
[1] = test system: DME-related biallelic markers; assay: Genotyping by microsequencing: allele frequencies of DME-related biallelic markers in random Caucasian populations; design: species or system human; conditions: Caucasian FRENCH
Experimental: The biallelic markers identified as described above were further confirmed and their respective frequencies were determined through microsequencing. Microsequencing was carried out on individual DNA samples obtained as described herein.
Amplification of genomic DNA fragments from individual DNA samples was performed as described in Example 1 using the same set of PCR primers (See Table 17). Microsequencing was carried out on the amplified fragments using specific primers (See Table 16). The preferred primers used in microsequencing had about 19 nucleotides in length and hybridized just upstream of the considered polymorphic base.
The microsequencing reactions were performed as follows: 5 μl of PCR products were added to 5 μl purification mix (2U SAP (Shrimp alkaline phosphate) (Amersham E70092X)); 2U Exonuclease I (Amersham E70073Z); and 1 μl SAP buffer (200 mM Tris-HCl pH8, 100 mM MgCl2) in a microtiter plate. The reaction mixture was incubated 30 minutes at 37° C., and denatured 10 minutes at 94° C. afterwards. To each well was then added 20 μl of microsequencing reaction mixture containing: 10 pmol microsequencing oligonucleotide (19 mers, GENSET, crude synthesis, 5 OD), 1 U Thermosequenase (Amersham E79000G), 1.25 μl Thermosequenase buffer (260 mM Tris HCl pH 9.5, 65 mM MgCl2), and the two appropriate fluorescent ddNTPs complementary to the nucleotides at the polymorphic site corresponding to both polymorphic bases (11.25 nM TAMRA-ddTTP; 16.25 nM ROX-ddCTP; 1.675 nM REG-ddATP; 1.25 nM RHO-ddGTP; Perkin Elmer, Dye Terminator Set 401095). After 4 minutes at 94° C., 20 PCR cycles of 15 sec at 55° C., 5 sec at 72° C., and 10 sec at 94° C. were carried out in a Tetrad PTC-225 thermocycler (MJ Research). The microtiter plate was centrifuged 10 sec at 1500 rpm. The unincorporated dye terminators were removed by precipitation with 19 μl MgCl2 2 mM and 55 μl 100% ethanol. After 15 minute incubation at room temperature, the microtiter plate was centrifuged at 3300 rpm 15 minutes at 4° C. After discarding the supernatants, the microplate was evaporated to dryness under reduced pressure (Speed Vac). Samples were resuspended in 2.5 μl formamide EDTA loading buffer and heated for 2 min at 95° C. 0.8 μl microsequencing reaction were loaded on a 10% (19:1) polyacrylamide sequencing gel. The data were collected by an ABI PRISM 377 DNA sequencer and processed using the GENESCAN software (Perkin Elmer).
The frequencies for both alleles are shown for preferred MGST-II, ME1, UGT1A7 and UGT2B4 markers in Tables 19, 20, 21 and 22, respectively.

[2] = test system: serum level of alanine aminotransferase (ALT); assay: Clinical study of zileuton: hepatotoxicity monitored by serum ALT level; assay type: in vivo, human; conditions: asthmatic individuals treated with zileuton
Excerpt: In a preferred embodiment, the trait considered was a side-effect upon drug treatment, the study involved two populations derived from a clinical study of the anti-asthmatic drug zileuton. The case population was composed of asthmatic individuals treated with zileuton showing zileuton-associated hepatotoxicity monitored by the serum level of alanine aminotransferase (ALT) and the control population was composed of asthmatic individuals treated with zileuton and having no increased serum level of ALT. Inclusion criteria and association between the biallelic markers of the present invention and zileuton-associated hepatotoxicity are further described below and in Example 4.
Zileuton (Zyflo™) is an active inhibitor of 5-lipoxygenase, the enzyme that catalyzes the formation of leukotrienes from arachidonic acid, indicated for prophylaxis and chronic treatment of asthma. […] In the present invention the ALT test (serum level of alanine aminotransferase) was used, which is considered the most sensitive indicator of liver injury.
Two groups of unrelated individuals were used in this association study in accordance with the invention: the case-control populations. The case population was composed of 89 asthmatic individuals treated with zileuton showing zileuton-associated hepatotoxicity monitored by the serum level of alanine aminotransferase (ALT) and the control population was composed of 208 asthmatic individuals treated with zileuton and having no increased serum ALT level.
The side effect examined in this study was the hepatotoxicity experienced by asthmatic individuals as a result of their treatment with Zileuton as part of a clinical study. […] Hepatotoxicity was monitored by measuring the serum levels of alanine aminotransferase (ALT), which is a sensitive indicator of liver cell damage.
As mentioned above, an association study is more informative if the populations considered present extreme phenotypes. […]

[3] = test system: smooth muscle in peripheral airways; conditions: both in vitro and in vivo; cited from earlier work

12-142-321 (DNA GCAGCACAGCGGTCTGCGTGGAARTGAGGCACCGGGTGTGGGCGGGG; allele 24: 12-142-321 : polymorphic base A or G; listed as Homo Sapiens)
allele frequency A [1]: 54.44 | allele frequency G [1]: 45.56

12-143-453 (DNA TGGAGTGGAGCTTGGTTCTGGCCRTGGGCTGGGGAAGGGAGGTCCGG; allele 24: 12-143-453 : polymorphic base A or G; listed as Homo Sapiens)
allele frequency A [1]: 50.61 | allele frequency G [1]: 49.39

12-141-159 (DNA CTCAGTGAGTGAGTTGAAGGGCTYAGTCAACTATTTGTTGATACCAC; allele 24: 12-141-159 : polymorphic base T or C; listed as Homo Sapiens)
allele frequency A [1]: 37.5 | allele frequency G [1]: 62.5

CC(c1cc2ccccc2s1)N(O)C(N)=O (stereo not shown) [Zileuton, zileuton]
ALT+ population (at least 3 times the upper limit of normal level of ALT) as share of total asthmatic individuals in the study ([2]; 89 individuals): 4% | ALT- population (less than 1xULN of ALT) as share of total asthmatic individuals in the study ([2]; 208 individuals): 35% | asthmatic individuals that did not experience Zileuton-associated ALT increase ([2]; compared to ALT levels prior to zileuton intake): More than 90%

CCCCC/C=C\C\C=C/C=C/C=C/[C@@H](SC[C@H](N)C(=O)NCC(=O)O)[C@@H](O)CCCC(=O)O [LTD4, Leukotriene D4]
bronchoconstrictor potency relative to histamine [3]: 1000 times

12-124-194 (DNA TCTAGCTGGAGCCTGCGCTTGAGYAAAGAGCTGAACAACCAGATTGC; allele 24: 12-124-194 : polymorphic base C or T; listed as Homo Sapiens)
allele frequency C [1]: 19.41 | allele frequency T [1]: 80.59

CCCCC/C=C\C\C=C/C=C/C=C/[C@@H](SC[C@H](NC(=O)CC[C@H](N)C(=O)O)C(=O)NCC(=O)O)[C@@H](O)CCCC(=O)O [LTC4, leukotriene C4]
bronchoconstrictor potency relative to histamine [3]: 1000 times
